Measurements: the NIST ThermoML archive (doi:10.1021/je500092v)
Several values for one entry are separate records, joined by “and”; a condition that tells them apart may be missing. Identical values can stand only once. ± gives the expanded uncertainty stated by the source.

Experiments:
[1] = refractive index (Na D-line) (dimensionless); details: 293.15 K; 101.33 kPa; Liquid; Standard Abbe refractometry
[2] = Liquid, Ebulliometric method (Recirculating still)

Compound | refractive index [1] | vapor or sublimation pressure ([2]; 313.15 K) [kPa] | vapor or sublimation pressure ([2]; 335.15 K) [kPa] | vapor or sublimation pressure ([2]; 363.15 K) | vapor or sublimation pressure ([2]; 337.8 K) [kPa] | vapor or sublimation pressure ([2]; 355.78 K) [kPa] | vapor or sublimation pressure ([2]; 371.94 K) [kPa] | vapor or sublimation pressure ([2]; 343.15 K) [kPa] | vapor or sublimation pressure ([2]; 380.15 K) [kPa] | vapor or sublimation pressure ([2]; 399.53 K) [kPa] | vapor or sublimation pressure ([2]; 425.91 K) [kPa] | vapor or sublimation pressure ([2]; 448.97 K) [kPa]
C=CCCCC [hex-1-ene] | 1.3838 ± 0.0004 | 45.01 ± 0.48 | 96.56 ± 0.7 | 218.59 ± 1.2 kPa | – | – | – | – | – | – | – | –
CCCCO [butan-1-ol] | 1.3992 ± 0.0004 | – | – | – | 10 ± 0.23 | 25 ± 0.44 | 50 ± 0.78 | – | – | – | – | –
CN1CCCC1=O [N-methylpyrrolidone] | 1.4703 ± 0.0004 | 0.13 ± 0.13 | 0.51 ± 0.13 | 2.18 ± 0.26 kPa and 2.17 ± 0.26 kPa | – | – | – | 0.79 ± 0.26 | 4.98 ± 0.27 | 10 ± 0.34 | 25 ± 0.61 | 50 ± 1.1
